The source of these data is patent publication US9072717B2, “Cosmetic compositions containing alpha glucosidase inhibitors and methods of use” (ELC Management LLC, priority 2007, dated 2015).

This experiment concerns the target T1, α-glucosidase—Saccharomyces cerevisiae recombinant (Saccharomyces cerevisiae, UniProt P53341).
T1 construct: purchased Sigma G0660
The experiment can be described thus: alpha glucosidase inhibitory activity assay (release of p-nitrophenol from p-nitrophenyl-α-D-glucoside). Type of experiment: biochemical. Conditions: end concentration in the well 0.8 mM; 'should cause about 50% inhibition'. The method, then: [drawing 1] wherein the α-glucosidase activity is measured by the release of p-nitrophenol, and as further set forth in Example 1.
Materials were tested for alpha glucosidase inhibitory activity as follows:
Materials: Standard laboratory equipment, 96 well half area plates with UV transparent bottom (Costar, 3679), 8 channel multi pipette (20 to 200 μl), and spectrophotometer, Spectra Max Plus (Molecular Devices).
Reagents: • (a) Distilled water • (b) Potassium dihydrogen phosphate • (c) Dimethylsulfoxide (Acros, 12779) • (d) α-glucosidase—Saccharomyces cerevisiae recombinant (min. 125 U/mg protein) (Sigma, G0660) • (e) p-nitrophenol-α-D-glucopyranoside (Sigma, N1377) • (f) Australine hydrochloride, castanospermum australe (Calbiochem, #189422) (reference inhibitor)
60 μl of reference inhibitor is needed per well)
Stock solution of the test sample is prepared using 142 mM potassium phosphate buffer (solubility of test sample can be improved using DMSO/potassium phosphate mixtures. The end concentration of DMSO should not exceed 1% v/v which corresponds to 1.66% DMSO in the sample stock solution. […]
Pipette with 8 channel multi-pipette 20 μl of the enzyme and mix well. […] The absorbance was measured at […].
For each concentration of potential inhibitor, the initial reaction velocity is calculated, being the initial slope of the absorbance vs. time data. […]

T1 sequence (P53341 whole entry): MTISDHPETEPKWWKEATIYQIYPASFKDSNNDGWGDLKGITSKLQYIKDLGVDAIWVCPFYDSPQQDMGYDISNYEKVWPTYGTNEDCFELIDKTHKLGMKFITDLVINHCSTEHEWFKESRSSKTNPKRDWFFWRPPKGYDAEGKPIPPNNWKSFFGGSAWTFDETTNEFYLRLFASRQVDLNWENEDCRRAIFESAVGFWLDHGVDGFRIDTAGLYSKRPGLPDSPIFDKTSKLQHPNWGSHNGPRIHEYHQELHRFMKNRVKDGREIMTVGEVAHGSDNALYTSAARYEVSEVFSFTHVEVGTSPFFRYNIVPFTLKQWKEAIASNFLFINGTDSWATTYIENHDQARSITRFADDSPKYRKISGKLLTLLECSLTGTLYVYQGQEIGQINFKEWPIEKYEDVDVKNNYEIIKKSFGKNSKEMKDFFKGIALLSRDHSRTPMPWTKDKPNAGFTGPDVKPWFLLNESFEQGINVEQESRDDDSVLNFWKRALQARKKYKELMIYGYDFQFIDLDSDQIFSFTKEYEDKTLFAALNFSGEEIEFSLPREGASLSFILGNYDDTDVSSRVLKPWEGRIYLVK

In the case of `Cl.OC[C@@H]1[C@@H](O)[C@H](O)[C@H]2[C@@H](O)CCN21` [Australine HCl, Australine hydrochloride], the “inhibition in the well (reference inhibitor)” value is listed as “about 50%”.
